Source: publication PMC8230704 (Journal of the American Chemical Society, 2021)
Where two headings read alike, the source gives them in different places.

What was measured:
NDM-1 [1] = conditions: substrate of NDM-1; cited from earlier work
NDM-15 Δ35 BL21 cells = NDM-15 Δ35 BL21 cells (Klebsiella pneumoniae, UniProt C7C422, A233V/M154L); assay: Confocal fluorescence imaging of 4D-treated live E. coli expressing Δ35 NDM-15; assay type: cell-based; conditions: DPA up to 200 μM
NDM-1 [2] = target: T1, NDM-1 (Klebsiella pneumoniae, UniProt C7C422); assay: Challenge of fluorescent 4D:NDM-1 complex with inhibitors and chelators; assay type: binding
NDM-1 [3] = target: T1, NDM-1; conditions: read-out: IC50 for purified NDM-1; cited from earlier work
NDM-1 [4] = target: T1, NDM-1; assay: NDM-1 inhibition with chromacef substrate; assay type: biochemical
[5] = target: Δ35 NDM-1 expressing BL21 (DE3) E. coli (Klebsiella pneumoniae, UniProt C7C422); assay: cell-based
[6] = read-out: Kd,Zn(II); cited from earlier work

For chromacef, the Km (NDM-1 [1]) is listed as 0.66 ± 0.2 µM.

In the case of CC1=C(C(=O)O)N2C(=O)[C@@H](NC(=O)[C@H](N)c3ccccc3)[C@H]2SC1 [cephalexin], the Km (NDM-1 [1]) is given as 5.6 µM.

For O=C(O)c1cccc(C(=O)O)n1 [DPA, dipicolinic acid], the “effect on fluorescence” value (NDM-15 Δ35 BL21 cells) is listed as “no effect on fluorescence”, the “fluorescence turn-on of 4D:NDM-1 after treatment” value (NDM-1 [2]; DPA 150 μM, 50 μM ZnSO4, from 17-fold maximum) is listed as 13 fold and the IC50 (NDM-1 [3]) is listed as 0.5 µM. The IC50 (NDM-1 [4]) was 154 µM and the IC50 [5] was roughly 200 µM.

With c1ccc(CN(CCN(Cc2ccccn2)Cc2ccccn2)Cc2ccccn2)nc1 [TPEN, N,N,N′,N′-tetrakis(2-pyridinyl-methyl)-1,2-ethanediamine] the “fluorescence after pre-incubation of NDM-1 with TPEN” value (NDM-1 [2]; 10 μM NDM-1 and 10 μM 4D, recovered upon excess ZnSO4) was “complete reduction of fluorescence”, the “fluorescence turn-on after pre-incubation of NDM-1 with TPEN” value (NDM-1 [2]; 30 μM NDM-1 pre-incubated with TPEN, then 10 μM 4D) was ~ 4 fold and the “fluorescence turn-on of 4D:NDM-1 after treatment” value (NDM-1 [2]; TPEN 50 μM, 10 μM ZnSO4, from 12-fold) was 9.2 fold.

In the case of O=C([O-])CN(CCN(CC(=O)O)CC(=O)O)CC(=O)[O-].[Ca+2] [CaEDTA, calcium EDTA], the Kd [6] is listed as 0.001 µM.
